Our source for the pEC50 values is patent publication US11286243B2 (GLOBAL BLOOD THERAPEUTICS, INC., priority 2018, dated 2022).

This experiment has as its target T1, human ferroportin (Homo sapiens, UniProt Q9NP59).
T1 construct: luciferase reporter (probably NanoLuc: read with the Nano-Glo Luciferase Assay System); expressed in transfected cells; host or cells: CHO cells, stably transfected, doxycycline-inducible expression
T1 sequence (Q9NP59 1-571): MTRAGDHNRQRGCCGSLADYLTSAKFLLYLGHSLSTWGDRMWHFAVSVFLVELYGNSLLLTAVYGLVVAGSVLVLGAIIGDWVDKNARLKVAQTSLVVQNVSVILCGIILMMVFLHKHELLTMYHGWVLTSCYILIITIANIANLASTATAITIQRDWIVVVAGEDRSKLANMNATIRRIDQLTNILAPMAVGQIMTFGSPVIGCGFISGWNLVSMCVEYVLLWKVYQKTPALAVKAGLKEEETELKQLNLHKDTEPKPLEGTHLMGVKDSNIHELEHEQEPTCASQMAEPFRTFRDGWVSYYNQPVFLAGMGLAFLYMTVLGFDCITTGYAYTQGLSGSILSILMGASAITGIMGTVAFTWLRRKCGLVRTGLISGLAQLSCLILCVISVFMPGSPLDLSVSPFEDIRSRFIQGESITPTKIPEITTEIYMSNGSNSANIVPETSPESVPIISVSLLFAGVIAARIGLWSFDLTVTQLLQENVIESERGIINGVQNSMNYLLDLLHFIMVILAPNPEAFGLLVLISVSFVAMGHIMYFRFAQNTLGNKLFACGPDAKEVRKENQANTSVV
The experiment in a line: In-vitro ferroportin internalization assay (luciferase reporter). Type of experiment: cell-based. To be noted: average pEC50; stably-transfected CHO cell line expressing human ferroportin tagged to a luciferase reporter; 6 h incubation with test compounds. The procedure:
The protocol for this assay is generally as described in WO2018/128828, incorporated herein by reference in its entirety. Functional internalization of ferroportin protein was measured using a stably-transfected CHO cell line expressing the human ferroportin tagged to a luciferase reporter. Cells were plated for 24 h in the presence of ferric ammonium citrate (FAC). Ferroportin protein expression was induced with doxycycline for 24 h. The next day, the compounds were added. Test compounds were dissolved in DMSO. Cells were incubated with the test compounds for 6 h, and subsequently luciferase activity was measured using the Nano-Glo Luciferase Assay System and Glomax (Promega, Madison, Wis.).
The average pEC50 was determined for the test compounds.

For the compound `C[C@H](Cc1nc2c(NCc3ncccc3F)ncnc2s1)NCCc1nc2ccccc2[nH]1` [Compound 26, 2-[(2R)-2-{[2-(1H-1,3-benzodiazol-2-yl)ethyl]amino}propyl]-N-[(3-fluoropyridin-2-yl)methyl]-[1,3]thiazolo[5,4-d]pyrimidin-7-amine], the pEC50 (usually −log10 of the EC50, conventionally taken in molar units) turned out to be 6.5.

The compound `Fc1cccnc1CNc1nccc2oc(CCNCCc3ncc[nH]3)nc12` [Compound 58] returned a pEC50 of 5.7.

`Fc1cccnc1CNc1ncnc2sc(CC3CCCC(Cc4nc5ccccc5[nH]4)N3)nc12` (stereo not drawn) [Compound 71, 2-({6-[(1H-1,3-benzodiazol-2-yl)methyl]piperidin-2-yl}methyl)-N-[(3-fluoropyridin-2-yl)methyl]-[1,3]thiazolo[5,4-d]pyrimidin-7-amine] yielded a pEC50 of 5.2.

Compound `Nc1nc(NCc2ncccc2F)c2nc(CCNCCc3nc4ccccc4[nH]3)sc2n1` [Compound 21, 2-(2-{[2-(1H-1,3-benzodiazol-2-yl)ethyl]amino}ethyl)-N7-[(3-fluoropyridin-2-yl)methyl]-[1,3]thiazolo[5,4-d]pyrimidine-5,7-diamine] registered a pEC50 of 6.2.

With `Fc1cccnc1CNc1ncnc2sc(CCNCCc3ncc(-c4ccc(Cl)s4)[nH]3)nc12` [Compound 72, 2-[2-({2-[5-(5-chlorothiophen-2-yl)-1H-imidazol-2-yl]ethyl}amino)ethyl]-N-[(3-fluoropyridin-2-yl)methyl]-[1,3]thiazolo[5,4-d]pyrimidin-7-amine], the pEC50 was 6.4.

On to `Oc1cccc(CNCCc2nc3c(NCc4ncccc4F)nccc3o2)c1` [Compound 54, 3-({[2-(4-{[(3-fluoropyridin-2-yl)methyl]amino}-[1,3]oxazolo[4,5-c]pyridin-2-yl)ethyl]amino}methyl)phenol], for which the pEC50 is reported as 5.1.

In turn, `COc1cccnc1CNc1ncnc2sc(CCNCCc3nc4ccccc4[nH]3)nc12` [Compound 11, 2-(2-{[2-(1H-1,3-benzodiazol-2-yl)ethyl]amino}ethyl)-N-[(3-methoxypyridin-2-yl)methyl]-[1,3]thiazolo[5,4-d]pyrimidin-7-amine] returned a pEC50 of 6.7.

The compound `Fc1cccnc1CNc1nccc2oc(CCNCCc3nc4ccccc4[nH]3)nc12` [Compound 13, 2-(2-{[2-(1H-1,3-benzodiazol-2-yl)ethyl]amino}ethyl)-N-[(3-fluoropyridin-2-yl)methyl]-[1,3]oxazolo[4,5-c]pyridin-4-amine] came in with a pEC50 of 8.

The compound `c1ccc(CNc2ncnc3sc(CCNCCc4nc5ccccc5[nH]4)nc23)cc1` [Compound 4, 2-(2-{[2-(1H-1,3-benzodiazol-2-yl)ethyl]amino}ethyl)-N-benzyl-[1,3]thiazolo[5,4-d]pyrimidin-7-amine] returned a pEC50 of 6.6.

In turn, `Fc1cccnc1CNc1nccc2oc(CCNCCc3ncc(-c4ccccc4)[nH]3)nc12` [Compound 48, N-[(3-fluoropyridin-2-yl)methyl]-2-(2-{[2-(5-phenyl-1H-imidazol-2-yl)ethyl]amino}ethyl)-[1,3]oxazolo[4,5-c]pyridin-4-amine] displayed a negative logarithm of the EC50 (pEC50) of 7.

With `Fc1cccnc1CNc1ncnc2sc(CCNCCc3nc4ncccc4[nH]3)nc12` [Compound 33, N-[(3-fluoropyridin-2-yl)methyl]-2-{2-[(2-{1H-imidazo[4,5-b]pyridin-2-yl}ethyl)amino]ethyl}-[1,3]thiazolo[5,4-d]pyrimidin-7-amine], the negative-log EC50 (pEC50) is 6.2.

Consider `Fc1cccnc1CNc1ncnc2sc(CCNCCc3nc4ccccc4o3)nc12` [Compound 16, 2-(2-{[2-(1,3-benzoxazol-2-yl)ethyl]amino}ethyl)-N-[(3-fluoropyridin-2-yl)methyl]-[1,3]thiazolo[5,4-d]pyrimidin-7-amine], for which the negative logarithm of the EC50 (pEC50) was 5.6.

Take `Fc1cccnc1CNc1ncnc2sc(CCNCCc3nc4ccccc4[nH]3)nc12` [Compound 1, 2-(2-{[2-(1H-1,3-benzodiazol-2-yl)ethyl]amino}ethyl)-N-[(3-fluoropyridin-2-yl)methyl]-[1,3]thiazolo[5,4-d]pyrimidin-7-amine]: the pEC50 amounted to 7.8.

`C[C@H](CNCCc1nc2c(NCc3ncccc3F)ncnc2s1)c1nc2ccccc2[nH]1` [Compound 52, 2-(2-{[(2R)-2-(1H-1,3-benzodiazol-2-yl)propyl]amino}ethyl)-N-[(3-fluoropyridin-2-yl)methyl]-[1,3]thiazolo[5,4-d]pyrimidin-7-amine] had a pEC50 of 6.6.

`Fc1cccnc1CNc1nccc2oc(CCNCCc3ncc(CC4CC4)[nH]3)nc12` [Compound 63, 2-[2-({2-[5-(cyclopropylmethyl)-1H-imidazol-2-yl]ethyl}amino)ethyl]-N-[(3-fluoropyridin-2-yl)methyl]-[1,3]oxazolo[4,5-c]pyridin-4-amine] displayed a pEC50 of 5.1.

`Fc1cccnc1CNc1ncnc2sc(C3(F)CN(CCc4nc5ccccc5[nH]4)C3)nc12` [Compound 25, 2-{1-[2-(1H-1,3-benzodiazol-2-yl)ethyl]-3-fluoroazetidin-3-yl}-N-[(3-fluoropyridin-2-yl)methyl]-[1,3]thiazolo[5,4-d]pyrimidin-7-amine] had a pEC50 of 6.3.

Turning to `CC(NCCc1nc2c(NCc3ncccc3F)ncnc2s1)c1ccccc1O` (stereo not drawn) [Compound 38, 2-(1-{[2-(7-{[(3-fluoropyridin-2-yl)methyl]amino}-[1,3]thiazolo[5,4-d]pyrimidin-2-yl)ethyl]amino}ethyl)phenol], the pEC50 came out at 4.9.

On to `Fc1cccnc1CNc1nccc2oc([C@H](F)CNCCc3nc4ccccc4[nH]3)nc12` [Compound 74, 2-[(1R)-2-{[2-(1H-1,3-benzodiazol-2-yl)ethyl]amino}-1-fluoroethyl]-N-[(3-fluoropyridin-2-yl)methyl]-[1,3]oxazolo[4,5-c]pyridin-4-amine], for which the pEC50 is reported as 6.9.

`COc1nc(NCc2ncccc2F)c2nc(CCNCCc3nc4ccccc4[nH]3)sc2n1` [Compound 18, 2-(2-{[2-(1H-1,3-benzodiazol-2-yl)ethyl]amino}ethyl)-N-[(3-fluoropyridin-2-yl)methyl]-5-methoxy-[1,3]thiazolo[5,4-d]pyrimidin-7-amine] had a negative-log EC50 (pEC50) of 5.7.

`Fc1cccnc1CNc1nccc2sc(CCNCCc3nc4ccccc4[nH]3)nc12` [Compound 14, 2-(2-{[2-(1H-1,3-benzodiazol-2-yl)ethyl]amino}ethyl)-N-[(3-fluoropyridin-2-yl)methyl]-[1,3]thiazolo[4,5-c]pyridin-4-amine] returned a pEC50 of 7.8.

Compound `Fc1cccnc1CNc1ncnc2sc(CCNCCc3ncc(-c4cccnc4)[nH]3)nc12` [Compound 60, N-[(3-fluoropyridin-2-yl)methyl]-2-[2-({2-[5-(pyridin-3-yl)-1H-imidazol-2-yl]ethyl}amino)ethyl]-[1,3]thiazolo[5,4-d]pyrimidin-7-amine] returned a negative-log EC50 (pEC50) of 5.8.

In turn, `Cc1cc2nc(CCNCCc3nc4c(NCc5ncccc5F)ncnc4s3)[nH]c2cc1C` [Compound 46, 2-(2-{[2-(5,6-dimethyl-1H-1,3-benzodiazol-2-yl)ethyl]amino}ethyl)-N-[(3-fluoropyridin-2-yl)methyl]-[1,3]thiazolo[5,4-d]pyrimidin-7-amine] had a pEC50 of 7.1.

`Fc1cccc(-c2cnc(CCNCCc3nc4c(NCc5ncccc5F)ncnc4s3)[nH]2)c1` [Compound 67, 2-[2-({2-[5-(3-fluorophenyl)-1H-imidazol-2-yl]ethyl}amino)ethyl]-N-[(3-fluoropyridin-2-yl)methyl]-[1,3]thiazolo[5,4-d]pyrimidin-7-amine] returned a pEC50 of 6.2.

Consider `Cc1nc(NCc2ncccc2F)c2nc(CCNCCc3nc4ccccc4[nH]3)sc2n1` [Compound 31, 2-(2-{[2-(1H-1,3-benzodiazol-2-yl)ethyl]amino}ethyl)-N-[(3-fluoropyridin-2-yl)methyl]-5-methyl-[1,3]thiazolo[5,4-d]pyrimidin-7-amine], for which the negative logarithm of the EC50 (pEC50) was found to be 5.6.

As for `Oc1ccccc1CCNCCc1nc2c(NCc3ncccc3F)ncnc2s1` [Compound 44, 2-(2-{[2-(7-{[(3-fluoropyridin-2-yl)methyl]amino}-[1,3]thiazolo[5,4-d]pyrimidin-2-yl)ethyl]amino}ethyl)phenol], the pEC50 is given as 4.9.

As to `Fc1cccnc1CNc1nccc2oc([C@@H](F)CNCCc3nc4ccccc4[nH]3)nc12` [Compound 75, 2-[(1 S)-2-{[2-(1H-1,3-benzodiazol-2-yl)ethyl]amino}-1-fluoroethyl]-N-[(3-fluoropyridin-2-yl)methyl]-[1,3]oxazolo[4,5-c]pyridin-4-amine], the pEC50 is given as 7.1.

`CC(=O)NOc1nc(NCc2ncccc2F)c2nc(CCNCCc3nc4ccccc4[nH]3)sc2n1` [Compound 29, N-{[2-(2-{[2-(1H-1,3-benzodiazol-2-yl)ethyl]amino}ethyl)-7-{[(3-fluoropyridin-2-yl)methyl]amino}-[1,3]thiazolo[5,4-d]pyrimidin-5-yl]oxy}acetamide] showed a pEC50 of 5.2.
